Experimental findings from patent publication EP2601931A2, “Cosmetic use of 3-methyl-1-phenyl-5-pyrazolon” (Henkel AG&Co. KGAA, priority 2011, dated 2013) are described below.

One data set concerns Kollagen-Neusynthese. Briefly: Collagen neosynthesis: P1NP secreted into the medium of a fibroblast / 3D epidermis model co-culture. The data set is classed as cell-based. The conditions noted are these: for P1NP: Co-Kultur-System, P1NP in medium, unbehandelt = 107. An excerpt:
Ein in der Kosmetik relevanter Parameter für die Anti-Aging-Leistung eines Produktes ist die Induktion der Kollagen-Neusynthese. […] Zum Nachweis der Kollagen-Neusynthese wurde ein Co-Kultur-System verwendet, das aus einer zweidimensionalen Fibroblasten-Kultur besteht, auf die in einem Insert ein dreidimensionales Epidermismodell aufgesetzt wurde. Über das Nährmedium kann ein Stoffaustausch zwischen den Fibroblasten und den Keratinocyten des Epidermismodells erfolgen. […] Als Kontrollen für die Syntheseinduktion wurden Retinsäure und Retinol eingesetzt.

Another data set concerns CYP26A1. Put plainly: RAMBA activity: change in CYP26A1 marker expression by qPCR in keratinocytes incubated with substance plus retinoic acid. From the text:
Verschiedene kosmetische Wirkstoffe, die zur Stoffklasse der Azole gerechnet werden können, wurden auf eine mögliche RAMBA-Aktivität hin untersucht. Zu diesem Zweck wurden humane Keratinocyaten für 16 Stunden mit den entsprechenden Substanzen in Kombination mit Retinsäure inkubiert und anschließend mittels qPCR die Expressionsänderung des Markers CYP26A1 verfolgt. Das Enzym CYP26A1 bewirkt die Metabolisierung der Retinsäure und wird durch die Retinsäure selber induziert, wodurch eine Feedbak-Regulation der Retinsäurekonzentration in der Zelle ermöglicht wird. […] Tabelle 1
Background: In qPCR the cycle at which signal appears reflects the starting amount.

Turning to `CC1=NN(c2ccccc2)C(=O)C1` [3-Methyl-1-phenyl-5-pyrazolon], the P1NP with Kollagen-Neusynthese (0,01%) came to 129 µg/mL. Besides, the “Induktion der Kollagensynthese” value with Kollagen-Neusynthese (result in words on Tabelle 2) is reported as “zeigen eine Induktion der Kollagensynthese”. Also, the “Rel. Expression CYP26A1” value in the data set on CYP26A1 (0,01% in combination with Retinsäure (RA, 10nM), humane Keratinocyten, 16 Stunden, qPCR, ethanol control = 1,0) is 1,3. For the same compound, the RAMBA-Aktivität result in the data set on CYP26A1 (comparison with Ketokonazol, result in words on Tabelle 1) is “in etwa die gleiche RAMBA-Aktivität wie Ketokonazol”. The “Induktion von CYP26A1” value with CYP26A1 (in combination with Retinsäure, result in words on Tabelle 1) is given as “deutlich vermindert”.

`CC1=C(/C=C/C(C)=C/C=C/C(C)=C/CO)C(C)(C)CCC1` [Retinol, reference compound] had a P1NP in the data set on Kollagen-Neusynthese (5µM) of 146 µg/mL.

In turn, `CC1=C(/C=C/C(C)=C/C=C/C(C)=C/C(=O)O)C(C)(C)CCC1` [Retinsäure, reference compound] returned a P1NP in the data set on Kollagen-Neusynthese (5µM) of 200 µg/mL. For the same compound, in the data set on CYP26A1 (keratinocytes, 16 h, 0.01 µM), the “Rel. Expression CYP26A1” value is 37,6.
